The target in one data set is Cytochrome P450 3A4 (Homo sapiens, UniProt P08684). The experiment in a line: Inhibition of human CYP3A4. In kind it is ADME.
The test system of a further data set is Cavia porcellus. The data set is described as follows: Inhibition of cartilage loss in Dunkin Hartley guinea pig spontaneous osteoarthritis model at 0.06 mg/kg/day, sc after 12 weeks (reference value: 23%). The note with it: 2016 h, route subcutaneous. It counts as functional.
Data set [1] is described as follows: Clearance in rat at 2 mg/kg, iv. In kind it is ADME, organism-based. Also noted: dose 2 mg/kg, route intravenous. The note with it: in vivo.
A short description of data set [2]: Half life in rat. The note with it: in vivo. In kind it is ADME, organism-based.
The nature of data set [3]: Oral bioavailability in rat at 3 to 10 mg/kg. It counts as ADME, organism-based. Conditions: in vivo.
Data set [4] in a line: Thermodynamic solubility of the compound in phosphate buffer at pH 7.4 at 25 degC after 24 hrs. The note with it: read-out: Therm_solubility.
Data set [5] is described as follows: in vitro. Conditions: human, liver microsomes.
A short description of data set [6]: Volume of distribution at steady state in rat at 2 mg/kg, iv and 5 mg/kg, po. It counts as ADME, organism-based. The note with it: in vivo, read-out: Vdss.
Data set [7] has as its target Matrix metalloproteinase-14 (Homo sapiens, UniProt P50281).
The target of data set [8] is Macrophage metalloelastase (Homo sapiens, UniProt P39900). The experiment in a line: Inhibition of MMP-12 (unknown origin) by fluorescence assay.
Data set [9] can be described thus: Solubility of compound in fasted state simulated intestinal fluid. It counts as physicochemical.
Data set [10] is described as follows: Intrinsic clearance in human hepatocytes measured per 10^6 cells. In kind it is ADME, cell-based, Hepatocyte. The note with it: read-out: CLH.
A short description of data set [11]: Half life in dog at 0.5 mg/kg, iv and 1 mg/kg, po. In kind it is ADME, organism-based, Canis lupus familiaris. Conditions: in vivo.
A short description of data set [12]: in vitro. Conditions: human, Caco-2.
The nature of data set [13]: Clearance in rat at 2 mg/kg, iv and 5 mg/kg, po. The note with it: in vivo. It counts as ADME, organism-based.
Data set [14] is described as follows: Oral bioavailability in rat at 5 mg/kg. The note with it: in vivo. It counts as ADME, organism-based.
Data set [15] in a line: Fraction unbound in human plasma. In kind it is ADME, cell-free.
Data set [16] in a line: Volume of distribution at steady state in dog at 0.5 mg/kg, iv and 1 mg/kg, po. It counts as ADME, organism-based, Canis lupus familiaris. Conditions: in vivo, read-out: Vdss.
A short description of a further data set: physchem. Conditions: buffer, pH 7.4.
Data set [17] in a line: Apparent permeability across basolateral to apical side in human Caco2 cells at 10 uM. It counts as ADME, cell-based. The note with it: Caco-2.
Data set [18] in a line: Clearance in dog at 0.5 mg/kg, iv and 1 mg/kg, po. The note with it: in vivo. It counts as ADME, organism-based, Canis lupus familiaris.
Data set [19] is described as follows: Oral bioavailability in dog at 1 mg/kg. It counts as ADME, organism-based, Canis lupus familiaris. Conditions: in vivo.
A short description of data set [20]: Half life in rat at 2 mg/kg, iv and 5 mg/kg, po. Conditions: in vivo. It counts as ADME, organism-based.
Data set [21] in a line: Fraction unbound in rat plasma. It counts as ADME, cell-free.
Data set [22] in a line: Fraction unbound in dog plasma. It counts as ADME, cell-free, Canis lupus familiaris.
For another data set, the target named is Cytochrome P450 2C19 (Homo sapiens, UniProt P33261). The data set is described as follows: Inhibition of human CYP2C19. It counts as ADME.
The target of a further data set is Cytochrome P450 2D6 (Homo sapiens, UniProt P10635). The experiment in a line: Inhibition of human CYP2D6. In kind it is ADME.
The target in the next data set is Cytochrome P450 2C9 (Homo sapiens, UniProt P11712). The data set is described as follows: Inhibition of human CYP2C9. In kind it is ADME.
In another data set the target is T1, Cytochrome P450 1A2 (Homo sapiens, UniProt P05177).
T1 sequence (P05177 whole entry): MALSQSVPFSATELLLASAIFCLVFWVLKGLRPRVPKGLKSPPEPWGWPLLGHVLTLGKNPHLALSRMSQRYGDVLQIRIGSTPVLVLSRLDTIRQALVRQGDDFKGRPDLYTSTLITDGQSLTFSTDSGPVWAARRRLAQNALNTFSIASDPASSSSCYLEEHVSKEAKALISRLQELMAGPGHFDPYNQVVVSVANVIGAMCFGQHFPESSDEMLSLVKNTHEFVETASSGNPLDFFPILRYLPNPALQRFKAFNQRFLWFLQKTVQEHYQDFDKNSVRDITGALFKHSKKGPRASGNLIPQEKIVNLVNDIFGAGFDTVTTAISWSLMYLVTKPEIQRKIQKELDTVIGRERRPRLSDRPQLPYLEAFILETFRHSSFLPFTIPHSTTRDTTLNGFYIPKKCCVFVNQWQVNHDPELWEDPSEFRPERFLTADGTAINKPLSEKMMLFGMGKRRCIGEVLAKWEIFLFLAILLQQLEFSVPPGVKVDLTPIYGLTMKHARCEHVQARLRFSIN
The experiment in a line: Inhibition of human CYP1A2. In kind it is ADME.

Converted amounts (≈) assume the structure as drawn.

Chain of Cytochrome P450 3A4 (P08684 whole entry): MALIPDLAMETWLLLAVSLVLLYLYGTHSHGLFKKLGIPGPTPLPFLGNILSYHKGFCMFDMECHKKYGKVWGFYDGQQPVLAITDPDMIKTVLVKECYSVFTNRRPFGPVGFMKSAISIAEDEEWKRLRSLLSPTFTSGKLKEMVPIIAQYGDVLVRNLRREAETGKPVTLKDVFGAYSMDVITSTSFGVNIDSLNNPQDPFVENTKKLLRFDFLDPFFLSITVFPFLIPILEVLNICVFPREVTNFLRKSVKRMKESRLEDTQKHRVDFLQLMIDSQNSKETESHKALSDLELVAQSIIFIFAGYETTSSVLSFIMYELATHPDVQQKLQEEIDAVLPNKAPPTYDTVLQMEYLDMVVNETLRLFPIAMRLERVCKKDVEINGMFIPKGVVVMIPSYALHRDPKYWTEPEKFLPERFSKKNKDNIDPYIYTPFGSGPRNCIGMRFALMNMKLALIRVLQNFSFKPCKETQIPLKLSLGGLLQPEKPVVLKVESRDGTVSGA
Chain of Macrophage metalloelastase (P39900 whole entry): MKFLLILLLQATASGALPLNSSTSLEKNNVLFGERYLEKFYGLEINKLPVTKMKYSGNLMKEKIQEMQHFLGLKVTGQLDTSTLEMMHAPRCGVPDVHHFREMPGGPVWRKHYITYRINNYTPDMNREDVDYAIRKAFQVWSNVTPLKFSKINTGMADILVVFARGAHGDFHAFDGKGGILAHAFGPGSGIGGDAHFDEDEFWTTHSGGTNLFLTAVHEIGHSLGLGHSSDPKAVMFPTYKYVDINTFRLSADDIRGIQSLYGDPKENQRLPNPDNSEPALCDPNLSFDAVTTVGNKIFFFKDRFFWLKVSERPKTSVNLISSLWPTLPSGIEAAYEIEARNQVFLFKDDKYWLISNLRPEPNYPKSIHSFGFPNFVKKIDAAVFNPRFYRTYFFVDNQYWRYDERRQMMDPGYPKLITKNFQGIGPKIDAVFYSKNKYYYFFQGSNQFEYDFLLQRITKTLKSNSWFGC
Chain of Cytochrome P450 2C19 (P33261 whole entry): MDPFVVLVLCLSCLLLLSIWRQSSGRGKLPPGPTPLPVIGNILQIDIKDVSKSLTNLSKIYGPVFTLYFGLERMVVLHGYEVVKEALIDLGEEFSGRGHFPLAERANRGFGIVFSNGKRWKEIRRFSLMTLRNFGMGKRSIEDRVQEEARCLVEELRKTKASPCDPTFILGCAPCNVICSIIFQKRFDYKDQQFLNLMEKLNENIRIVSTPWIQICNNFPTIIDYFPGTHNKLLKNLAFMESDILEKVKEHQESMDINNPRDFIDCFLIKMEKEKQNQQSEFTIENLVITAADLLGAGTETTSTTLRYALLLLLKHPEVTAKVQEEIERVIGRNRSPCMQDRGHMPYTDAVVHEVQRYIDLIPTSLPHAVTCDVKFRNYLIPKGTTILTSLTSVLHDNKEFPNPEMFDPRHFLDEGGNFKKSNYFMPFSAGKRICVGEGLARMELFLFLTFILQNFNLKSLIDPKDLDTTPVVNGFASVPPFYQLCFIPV
Chain of Cytochrome P450 2C9 (P11712 whole entry): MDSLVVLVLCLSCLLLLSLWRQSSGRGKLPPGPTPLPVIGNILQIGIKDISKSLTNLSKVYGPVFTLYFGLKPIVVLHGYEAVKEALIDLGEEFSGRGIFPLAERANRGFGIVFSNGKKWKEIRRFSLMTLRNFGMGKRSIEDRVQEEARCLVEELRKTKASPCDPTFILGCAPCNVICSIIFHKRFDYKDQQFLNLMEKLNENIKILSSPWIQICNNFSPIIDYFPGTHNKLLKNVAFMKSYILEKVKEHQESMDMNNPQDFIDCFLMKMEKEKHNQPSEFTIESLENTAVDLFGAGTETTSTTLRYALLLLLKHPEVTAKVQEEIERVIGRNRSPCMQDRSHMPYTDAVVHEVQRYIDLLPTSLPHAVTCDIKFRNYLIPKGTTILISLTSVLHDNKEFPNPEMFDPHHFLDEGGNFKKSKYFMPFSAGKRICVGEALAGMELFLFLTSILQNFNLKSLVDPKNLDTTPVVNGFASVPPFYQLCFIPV
Chain of Cytochrome P450 2D6 (P10635 whole entry): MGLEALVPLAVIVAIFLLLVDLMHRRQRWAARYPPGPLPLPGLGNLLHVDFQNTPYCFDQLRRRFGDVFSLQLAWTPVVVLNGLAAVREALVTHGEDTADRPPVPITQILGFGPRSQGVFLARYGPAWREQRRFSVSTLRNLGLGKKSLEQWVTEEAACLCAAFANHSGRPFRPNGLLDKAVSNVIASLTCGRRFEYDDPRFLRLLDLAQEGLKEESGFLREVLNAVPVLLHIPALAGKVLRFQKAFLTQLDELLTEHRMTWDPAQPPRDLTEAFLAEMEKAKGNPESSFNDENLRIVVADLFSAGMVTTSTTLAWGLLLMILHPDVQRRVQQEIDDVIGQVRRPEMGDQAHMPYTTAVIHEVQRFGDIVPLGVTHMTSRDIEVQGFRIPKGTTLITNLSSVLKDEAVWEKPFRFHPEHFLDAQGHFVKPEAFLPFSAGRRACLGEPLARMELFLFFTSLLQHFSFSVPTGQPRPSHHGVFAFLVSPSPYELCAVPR

`O=CN(O)[C@@H](CCCc1ncccn1)CS(=O)(=O)N1CCN(c2ccc(C(F)(F)F)cn2)CC1`: 1 µM corresponded to half-maximal inhibition on Cytochrome P450 3A4 (IC50).
The compound `O=CN(O)[C@@H](CCc1ncccn1)CS(=O)(=O)N1CCN(c2ccc(OCC(F)(F)F)cn2)CC1` came in with an inhibition in vivo at 0.06 mg/kg/day in the data set on Cavia porcellus of 76%.
In turn, `Cc1cc(COc2cnc(N3CCN(S(=O)(=O)C[C@@]4(C)NC(=O)NC4=O)CC3)nc2)on1` had a clearance in data set [1] of 13.4 mL/min/kg. This compound gave a half-life in [2] of 0.67 h. Moreover, the bioavailability in [3] came out at 37%. The solubility thermodynamic at 24 h in data set [4] amounted to 13 µM (≈ 6.05 µg/mL). In “in vitro [5]”, this compound returned an intrinsic clearance (microsomal CLint) of less than 2 µL/min/mg. Also, in [6], the Vd turned out to be 0.5 L/kg.
Take `C[C@]1(CS(=O)(=O)N2CCC(Oc3ccc(OCc4ccccc4)cc3)CC2)NC(=O)NC1=O`: the solubility thermodynamic at 24 h in data set [4] is less than 0.8 µM.
On to `C[C@]1(CS(=O)(=O)N2CCC(Oc3ccc(OC(F)(F)F)cc3)CC2)NC(=O)NC1=O`, for which the values for the IC50 in data set [7] and in data set [8] were 9.5 µM and 0.0033 µM, respectively. The solubility thermodynamic at 24 h in data set [4] was 18 µM (≈ 8.13 µg/mL).
Turning to `C[C@]1(CS(=O)(=O)N2CCC(Oc3ccc(F)cc3)CC2)NC(=O)NC1=O`, the solubility thermodynamic at 24 h in data set [4] was 52 µM (≈ 20 µg/mL). The same compound came in with an IC50 in data set [8] of 0.0237 µM.
In data set [7], `C[C@]1(CS(=O)(=O)N2CCC(Oc3ccc(OCc4cscn4)cc3)CC2)NC(=O)NC1=O` returned an IC50 of 4.09 µM. Further, the solubility thermodynamic at 24 h in [4] stood at 87 µM (≈ 41.8 µg/mL).
Consider `COc1ccc(COc2ccc(OC3CCN(S(=O)(=O)C[C@@]4(C)NC(=O)NC4=O)CC3)cc2)cc1`, for which the IC50 in data set [7] stood at 1.08 µM. For the same compound, the solubility thermodynamic at 24 h in [4] was determined as 1.2 µM (≈ 0.604 µg/mL).
Regarding `C[C@]1(CS(=O)(=O)N2CCN(c3ncc(OCc4ccc(S(C)(=O)=O)cc4)cn3)CC2)NC(=O)NC1=O`, the solubility thermodynamic at 24 h in data set [4] turned out to be 1 µM (≈ 0.539 µg/mL).
Take `C[C@]1(CS(=O)(=O)N2CCC(Oc3ccc(OCC(F)(F)C(F)(F)F)cc3)CC2)NC(=O)NC1=O`: the IC50 in [7] worked out at 4.74 µM. The solubility thermodynamic at 24 h in data set [4] worked out at 4.4 µM (≈ 2.27 µg/mL).
The compound `C[C@]1(CS(=O)(=O)N2CCC(Oc3ccc(OCc4ccc(C(F)(F)F)o4)cc3)CC2)NC(=O)NC1=O` showed an IC50 in data set [7] of 1.86 µM. This counts as single-digit micromolar.
For the compound `C[C@]1(CS(=O)(=O)N2CCN(c3ncc(OCc4cnc(C#N)s4)cn3)CC2)NC(=O)NC1=O`, in data set [1], the clearance came to 97.3 mL/min/kg. The compound further gave a half-life in [2] of 0.23 h. The bioavailability in data set [3] was determined as 6%. Further, the solubility thermodynamic at 24 h in data set [4] came to 14 µM (≈ 6.9 µg/mL). The intrinsic metabolic clearance (microsomal CLint) in “in vitro [5]” worked out at 16 µL/min/mg. The Vd in data set [6] stood at 0.5 L/kg.
Consider `C[C@]1(CS(=O)(=O)N2CCN(c3ncc(OCc4ccc(C(F)(F)F)o4)cn3)CC2)NC(=O)NC1=O`, for which, in data set [9], the solubility was 26.5 µM (≈ 13.7 µg/mL). Besides, the hepatocyte CLint in [10] is less than 2 µL/min/1e6 cells. Further, the figures for the clearance in [1], in data set [13] and in [18] were 6.3 mL/min/kg, 6.3 mL/min/kg and 1.3 mL/min/kg, respectively. The half-life was 10.6 h in data set [11], 2.6 h in data set [2] and 2.6 h in data set [20]. Moreover, the Papp A→B at 10 µM in the data set “in vitro [12]” came to 9 ×10⁻⁶ cm/s. The figures for the bioavailability in data set [14], in data set [3] and in data set [19] were 100%, 100% and 51%, respectively. In addition, the fraction unbound was found to be 0.06 in data set [15], 0.08 in data set [21] and 0.08 in [22]. The Vd stood at 1.2 L/kg in [16] and 1.3 L/kg in [6]. This compound returned a pH-dependent lipophilicity (logD) in “physchem” of 2.3. Moreover, in [17], the Papp B→A at 10 µM worked out at 52 ×10⁻⁶ cm/s. In addition, in data set [4], the solubility thermodynamic at 24 h came to 11 µM (≈ 5.7 µg/mL). In “in vitro [5]”, the intrinsic clearance (microsomal CLint) came out at 7 µL/min/mg.
`CCc1cc(COc2cnc(N3CCN(S(=O)(=O)C[C@@]4(C)NC(=O)NC4=O)CC3)nc2)on1` returned a microsomal CLint in the data set “in vitro [5]” of less than 2 µL/min/mg.
Take `C[C@]1(CS(=O)(=O)N2CCC(Oc3ccc(OCc4ccc(C#N)cc4)cc3)CC2)NC(=O)NC1=O`: the solubility thermodynamic at 24 h in data set [4] is 1.8 µM (≈ 0.897 µg/mL).
As to `C[C@]1(CS(=O)(=O)N2CCC(Oc3ccc(OCc4cccnc4)cc3)CC2)NC(=O)NC1=O`, the solubility thermodynamic at 24 h in data set [4] amounted to 8.4 µM (≈ 3.99 µg/mL).
For `C[C@]1(CS(=O)(=O)N2CCC(Oc3ccc(OCc4ccccn4)cc3)CC2)NC(=O)NC1=O`, the half-life in data set [11] was 2.3 h; in data set [20], 2.5 h. Further, the IC50 against Cytochrome P450 2C19 is greater than 10 µM; in data set [7], 6.9 µM; on Cytochrome P450 2D6, greater than 10 µM; against Cytochrome P450 2C9, greater than 10 µM; against Cytochrome P450 1A2 it was greater than 10 µM; on Cytochrome P450 3A4, greater than 10 µM. For the same compound, the figures for the clearance in [13] and in data set [18] were 17 mL/min/kg and 3 mL/min/kg, respectively. Further, the bioavailability was found to be 35% in data set [14] and 51% in data set [19]. Besides, the Vd worked out at 0.6 L/kg in data set [16] and 0.8 L/kg in [6]. Further, the solubility thermodynamic at 24 h in data set [4] was 20 µM (≈ 9.49 µg/mL).
The compound `C[C@]1(CS(=O)(=O)N2CCC(Oc3ccc(OCC(F)(F)C(F)F)cc3)CC2)NC(=O)NC1=O` returned an IC50 in data set [7] of 0.553 µM. For the same compound, in [4], the solubility thermodynamic at 24 h stood at 32 µM (≈ 15.9 µg/mL).

The values above are taken from ChEMBL document CHEMBL2407043, “Hydantoin based inhibitors of MMP13--discovery of AZD6605” (Bioorg Med Chem Lett, 2013).
